We go through 5 molecules from ChEMBL document CHEMBL5108038, “Development of Inhibitors Targeting the V-Domain Ig Suppressor of T Cell Activation Signal Pathway” (J Med Chem, 2022).

The target in assay [1] is T1, V-type immunoglobulin domain-containing suppressor of T-cell activation (Homo sapiens, UniProt Q9H7M9).
T1 sequence (Q9H7M9 whole entry): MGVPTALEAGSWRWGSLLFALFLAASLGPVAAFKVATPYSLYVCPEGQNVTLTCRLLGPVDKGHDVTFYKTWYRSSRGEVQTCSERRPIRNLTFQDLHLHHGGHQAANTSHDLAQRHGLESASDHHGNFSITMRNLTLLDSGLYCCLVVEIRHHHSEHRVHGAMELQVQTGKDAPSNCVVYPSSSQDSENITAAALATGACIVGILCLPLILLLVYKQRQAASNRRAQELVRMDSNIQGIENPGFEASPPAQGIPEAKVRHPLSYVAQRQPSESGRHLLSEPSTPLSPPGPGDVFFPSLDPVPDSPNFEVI
As to the kind of experiment: Binding affinity to VISTA (unknown origin) assessed as dissociation constant by MST method.

A short description of assay [2]: Antitumor immunity in PBMC (unknown origin) assessed as inhibition of VSIG8 binding to VISTA. In kind it is functional, cell-based.
The target in assay [3] is T2, V-set and immunoglobulin domain-containing protein 8 (Homo sapiens, UniProt P0DPA2).
T2 sequence (P0DPA2 whole entry): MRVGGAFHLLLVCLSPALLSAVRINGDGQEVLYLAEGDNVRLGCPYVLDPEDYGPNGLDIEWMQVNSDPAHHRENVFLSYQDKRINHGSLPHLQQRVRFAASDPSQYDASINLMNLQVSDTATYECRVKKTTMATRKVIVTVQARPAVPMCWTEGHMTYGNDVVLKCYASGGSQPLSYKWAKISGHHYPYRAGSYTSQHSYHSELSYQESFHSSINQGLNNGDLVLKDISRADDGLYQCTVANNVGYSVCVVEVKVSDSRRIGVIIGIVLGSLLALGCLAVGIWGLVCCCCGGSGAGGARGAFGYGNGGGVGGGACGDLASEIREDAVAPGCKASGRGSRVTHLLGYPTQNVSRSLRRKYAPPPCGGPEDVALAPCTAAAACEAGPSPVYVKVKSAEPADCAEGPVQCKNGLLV
As to the kind of experiment: Binding affinity to human VSIG8 assessed as dissociation constant by MST method.

Assay [4] deals with Programmed cell death protein 1/Programmed cell death 1 ligand 1 (Homo sapiens) (UniProt Q15116+Q9NZQ7). As to the kind of experiment: Inhibition of recombinant PD-1/PD-L1 signalling route (unknown origin) at 10 uM by HTRF assay relative to control. In kind it is protein-complex assay. For orientation: In TR-FRET formats the signal depends on donor and acceptor labels being close together.

For assay [5], the target named is T3, V-type immunoglobulin domain-containing suppressor of T-cell activation (Homo sapiens) (UniProt Q9H7M9).
T3 sequence (whole entry): T1 sequence (Q9H7M9 whole entry)
Briefly: Inhibition of recombinant VISTA signalling pathway (unknown origin) at 10 uM by HTRF assay relative to control.

Assay [6] can be described thus: Inhibition of VISTA/VSIG3 protein protein interaction (unknown origin) by FRET method. More on the design: species or system Homo sapiens.
The nature of assay [7]: Inhibition of PD-L1 in human PBMC. In kind it is cell-based.

Molecules are shown by their SMILES.

Turning to `Cc1ccc2nc(Nc3nc(O)cc(CSc4nnc(C)s4)n3)nc(C)c2c1`, in assay [1], the Kd (commonly a measure of binding affinity in units of concentration) was 0.647 µM. As to `COc1cc(NC(=O)Nc2c(-c3ccncc3)[nH]c3ccc(Cl)cc23)cc(OC)c1`, the concentration for a half-maximal effect (EC50) (in general, the midpoint of the concentration-response curve) in assay [2] was 1.46 µM. For the same molecule, in assay [3], the Kd is 6.7 µM. `C[C@@H](O)[C@H](NC(=O)C1(C(=O)N[C@@H](CC(N)=O)c2nc([C@H](N)CO)no2)CCCC1)C(=O)O`: the inhibition (commonly the change of the read-out against control, counted positive when it falls) in assay [4] came out at 92%; in assay [5], 81%. Take `CN(C)c1n/c(=N\Cc2ccco2)ss1`: in assay [6], the IC50 (as a rule, the concentration needed to halve the response being measured) came to 4.8 µM.

In assay [7], `C[C@@H](O)[C@H](NC(=O)N[C@@H](CC(N)=O)c1nc([C@H](N)CO)no1)C(=O)O` came in with an EC50 of 0.0661 µM.
